# Assay results: ChEMBL document CHEMBL4325894, “An update on sphingosine-1-phosphate receptor 1 modulators” (Bioorg Med Chem Lett, 2018)
# Columns and labels:
# [1] = Half life in human at 0.5 mg, po administered as single dose measured on day 14 by LC-MS/MS analysis; type: ADME, organism-based; settings: in vivo
# [2] = Half life in human; type: ADME
# [3] = test system: Homo sapiens; assay: Decrease in B lymphocytes in human at 10 mg dosed daily for 28 days measured within 4 to 6 hrs post dose relative to control; type: functional; design: scale not given: the % may be the effect or the level left
# [4] = test system: Homo sapiens; assay: Decrease in CD4+ T lymphocytes in human at 10 mg dosed daily for 28 days measured within 4 to 6 hrs post dose relative to control; type: functional; design: scale not given: the % may be the effect or the level left
# [5] = test system: Homo sapiens; assay: In vivo modulatory activity at S1P1 receptor in SPMS patient assessed as reduction in newly enlarge T2 lesion at 1.25 to 2 mg, po administered as daily dose relative to control; type: functional; design: scale not given: the % may be the effect or the level left
# [6] = test system: Homo sapiens; assay: Decrease in naive T cells in human at 10 mg dosed daily for 28 days measured within 4 to 6 hrs post dose relative to control; type: functional; design: scale not given: the % may be the effect or the level left
# [7] = Half life in human plasma; type: ADME, cell-free
# [8] = test system: Mus musculus; assay: Immunosuppressive activity in C57BL6 mouse assessed as decrease in CD8+ T lymphocyte count at 10 mg/kg, ip after 5 hrs by FACS analysis relative to control; type: functional; design: scale not given: the % may be the effect or the level left
# [9] = test system: Mus musculus; assay: Immunosuppressive activity in ip dosed C57BL6 mouse assessed as decrease in B220+ B lymphocyte count after 5 hrs by FACS analysis; type: functional
# [10] = test system: Mus musculus; assay: Immunosuppressive activity in C57BL6 mouse assessed as decrease in B220+ B lymphocyte count at 10 mg/kg, ip after 5 hrs by FACS analysis relative to control; type: functional; design: scale not given: the % may be the effect or the level left
# [11] = test system: Mus musculus; assay: Immunosuppressive activity in ip dosed C57BL6 mouse assessed as decrease in CD8+ T lymphocyte count after 5 hrs by FACS analysis; type: functional
# [12] = test system: Mus musculus; assay: Immunosuppressive activity in ip dosed C57BL6 mouse assessed as decrease in CD4+ T lymphocyte count after 5 hrs by FACS analysis; type: functional
# [13] = test system: Mus musculus; assay: Immunosuppressive activity in C57BL6 mouse assessed as decrease in CD4+ T lymphocyte count at 10 mg/kg, ip after 5 hrs by FACS analysis relative to control; type: functional; design: scale not given: the % may be the effect or the level left
# [14] = species on record: Homo sapiens; assay: Selectivity for S1P1 (unknown origin) over S1P5 (unknown origin)
# [15] = test system: Homo sapiens; assay: Immunosuppressive activity in po dosed human assessed as decrease in peripheral blood lymphocyte count measured after 21 days of continuous treatment; type: functional; settings: 504 h
# [16] = biological target: T1, Sphingosine 1-phosphate receptor 1 (Homo sapiens, UniProt P21453); assay: Modulation of S1P1 receptor internalization in HCtAEC assessed as S1P1 expression at 1000 nM after 1 hr by FACS analysis relative to control
# T1 sequence (P21453 whole entry): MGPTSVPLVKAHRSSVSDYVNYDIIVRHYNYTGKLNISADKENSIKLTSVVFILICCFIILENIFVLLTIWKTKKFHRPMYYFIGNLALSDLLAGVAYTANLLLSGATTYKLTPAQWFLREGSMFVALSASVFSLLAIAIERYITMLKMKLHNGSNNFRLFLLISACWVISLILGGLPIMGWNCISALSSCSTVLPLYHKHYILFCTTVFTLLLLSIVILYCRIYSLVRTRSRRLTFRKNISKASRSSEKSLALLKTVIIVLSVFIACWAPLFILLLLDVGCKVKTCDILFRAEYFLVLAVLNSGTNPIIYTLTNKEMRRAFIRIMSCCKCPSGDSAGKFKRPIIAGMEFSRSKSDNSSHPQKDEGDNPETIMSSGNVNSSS
# [17] = test system: Homo sapiens; assay: Immunosuppressive activity in po dosed human assessed as decrease in peripheral blood lymphocyte count measured after 24 hrs; type: functional
# [18] = biological target: T1, Sphingosine 1-phosphate receptor 1; assay: Modulation of S1P1 receptor internalization in HCtAEC assessed as S1P1 expression at 100 nM after 1 hr by FACS analysis relative to control
# [19] = test system: IEC-6; assay: Inhibition of apoptosis in rat IEC-6 cells assessed as decrease in CPT-induced DNA fragmentation relative to control; type: functional
# [20] = biological target: T1, Sphingosine 1-phosphate receptor 1; assay: Activation of human recombinant S1P1 expressed in CHO cell membranes after 120 mins by GTP-gamma-35S-binding assay
# [21] = test system: Homo sapiens; assay: Immunosuppressive activity in RRMS patient assessed as decrease in peripheral blood lymphocytes at 20 to 40 mg, po administered as daily dose measured after 8 days relative to control; design: scale not given: the % may be the effect or the level left
# [22] = test system: Homo sapiens; assay: Immunosuppressive activity in human assessed as decrease in peripheral blood lymphocyte count at 30 mg/kg, po bid relative to control; type: functional; design: scale not given: the % may be the effect or the level left
# [23] = test system: IEC-6; assay: Inhibition of apoptosis in rat IEC-6 cells assessed as decrease in CPT-induced DNA fragmentation; type: functional, cell-based
# [24] = test system: Homo sapiens; assay: Immunosuppressive activity in human assessed as decrease in peripheral blood lymphocyte count at 0.1 mg/kg, po qd relative to control; type: functional; design: scale not given: the % may be the effect or the level left
# [25] = species on record: Homo sapiens; assay: Immunosuppressive activity in human assessed as decrease in peripheral blood lymphocytes at 1 mg measured over 2 days relative to control; type: functional; design: scale not given: the % may be the effect or the level left
smiles,measurement,setting,value
CCCc1ccc(COc2ccc3c(c2)CCC(CN2CC(C(=O)O)C2)=C3C)c(OC)c1,half-life,[1],81.9 to 89 h
CC(C)Oc1ccc(-c2nc(-c3cccc4c3CC[C@@H]4NCCO)no2)cc1C#N [OZANIMOD],half-life,[2],19 h
CCc1cc(/C(C)=N/OCc2ccc(C3CCCCC3)c(C(F)(F)F)c2)ccc1CN1CC(C(=O)O)C1 [SIPONIMOD],Activity,[3],88%
same,Activity,[4],88%
same,Activity,[5],<=80%
same,Activity,[6],88%
same,half-life,[7],56.4 to 216 h
CCOc1ccc(-c2nc(-c3cccc4c3CCC4NCCO)no2)cc1OCC (centres undefined),Activity,[8],84%
same,ED50,[9],1 mg/kg
same,Activity,[10],63%
same,ED50,[11],2 mg/kg
same,ED50,[12],0.5 mg/kg
same,Activity,[13],83%
same,Selectivity Index,[14],10000
C[C@H](Oc1ccc(-c2nc(-c3ccc4[nH]cnc4c3)no2)cc1C(F)(F)F)C(F)(F)F [ASP-4058],ED50,[15],0.023 mg/kg
same,Activity,[16],23%
same,ED50,[17],0.1 mg/kg
same,Activity,[18],86%
CCCCCCCCc1ccc(CC[C@](N)(/C=C/P(=O)(O)O)CO)cc1,inhibition (INH),[19],21%
O=C(O)CCNCc1ccc2sc(-c3ccc(-c4ccccc4)c(C(F)(F)F)c3)cc2c1,EC50,[20],1.2 nM
CCC/N=C1/S/C(=C\c2ccc(OC[C@@H](O)CO)c(Cl)c2)C(=O)N1c1ccccc1C,Activity,[21],62%
Cc1cc([C@@H](C)Nc2cccc(-c3cc(C)c(C(=O)N[C@@H](C)C(=O)O)c(C)c3)c2)ccc1Cl,Activity,[22],75 - 85%
CCCCCCCCc1ccc(CC[C@@](N)(CO)CCP(=O)(O)O)cc1,inhibition (INH),[19],50%
same,EC50,[23],75 nM
CCCCCCCCc1ccc(CCC(N)(CO)CO)cc1 [FINGOLIMOD],Activity,[24],80 - 86%
same,Activity,[25],38%
same,ED50,[15],0.02 mg/kg
same,half-life,[2],168 h
same,ED50,[17],0.041 mg/kg
